# Reference: patent US9408845B2, “Formulations containing pyridazine compounds” (Northwestern University, priority 2006, dated 2016)
# “Also recorded” adds a separate entry of the source. Read-outs that look alike come from different tables or passages of the source.
# What was measured:
# [1] = tested on: nitric oxide (NO) production in BV-2 microglial cells; assay: LPS-stimulated accumulation of nitrite (NO metabolite) in BV-2 cells, Griess assay; format: cell-based, mouse; settings: for inhibition of LPS-stimulated accumulation of the NO metabolite, nitrite / selectivity (inhibits IL-1β but not production of NO, iNOS, COX-2): BV-2 cells; for inhibition of LPS-stimulated accumulation of the NO metabolite, nitrite: concentrations up to 33 μM; for selectivity (inhibits IL-1β but not production of NO, iNOS, COX-2): same concentration range; for IC50: read-out: NO, concentration required for 50% inhibition, LPS-stimulated BV-2 cells, 16 hrs
# Experimental: (§2) Glia cell-based assays of the concentration-dependent activity of the compounds were done as previously described (Hu T, Ralay Ranaivo et al., Current Alzheimer's Research 2005, 2:197-205; Mirzoeva. S, et al., J Med Chem 2002, 45:563-566; Ralay Ranaivo H, et al., 3 Neurosci 2006, 26:662-670). BV-2 mouse microglial cells were cultured for one day in multiwell plates and then treated in serum-free media for 16 his with either control buffer or the standard glial activating stimulus lipopolysaccharide (LPS, front Salmonella typhimurium; 100 ng/ml) in the presence of diluent or different concentrations of compounds. The accumulation of nitrite, the stable metabolite of nitric oxide (NO), was measured in V-2 conditioned media by the Griess assay as previously described (Hu W, Ralay Ranaivo et al., Current Alzheimer's Research 2005, 2:197-205; Mirzoeva S, et al, J Med Chem 2002, 45:563-566; Mirzoeva 5, et al., Brain Res 1999, 844:126434). Levels of IL-1β, TNFα, MCP-1 and IL-1β in cell lysates were measured by the Mesoscale Discovery system as per the manufacturer's instructions. Cell lysates were analyzed by Western blots as described (Mirzoeva 5, et al., J. Med Chem 2002, 45:563-566; Ralay Ranaivo H, et al J Neurosci 2006, 26:662-670) to determine the levels of inducible nitric oxide synthase (iNOS) and cyclooxygenase-2 (COX-2).
# [2] = tested on: iNOS production in activated BV-2 cells; assay: LPS-induced iNOS levels in activated BV-2 cells, Western blot; format: cell-based, mouse
# Experimental: as §2
# [3] = tested on: COX-2 production in activated BV-2 cells; assay: LPS-induced COX-2 levels in activated BV-2 cells, Western blot; format: cell-based, mouse
# Experimental: as §2
# [4] = tested on: LPS-induced IL-1β production in BV-2 microglia cells; assay: LPS-induced IL-1β production in BV-2 microglial cells; settings: for inhibition of LPS-induced increases of IL-1β: BV2 microglial cell line, concentration dependence; for IC50: read-out: IL-1β, concentration required for 50% inhibition
# Experimental: as §2
# [5] = tested on: human Aβ infusion mouse model; assay: Human Aβ infusion mouse model, hippocampal neuroinflammation and synaptic biochemical endpoints; format: in vivo; settings: hippocampus, Aβ-infused mice, oral compound
# Experimental: The study design and treatment paradigm for intracerebroventricular (ICV) infusion of human oligomerie Aβ1-42 into the mouse will be as described previously (Craft et al., Neurobiol Aging 25:1283-1292, 2004b), except that compound administration will be by mouth. Female C57Bl/6 mice (Harlan) weighing 20-25 g (3-4 months old) will be housed in a pathogen free facility under an approximate 12 h/12 h dark and light cycle and they will have access ad libitum to food and water.
# (§1) Once per day treatment will begin at day 21 after start of Aβ ICV infusion and continue for 14 days. Beginning at day 50 after start of Aβ ICV infusion, the Y maze test of spontaneous alternation will be used to evaluate hippocampus dependent spatial learning as described previously (Craf et al., J Mol. Neurosci. 24:115-122, 2004a). Briefly, each mouse will be placed in the “start” arm and then released to choose one of the two other arms. The mouse will be blocked from exiting the chosen arm for 30 s then they will be placed back in the start arm and released again to choose one of the two other arms. If the second choice is different from the first one, the mouse will be scored as alternating. Mice will be tested for 10 days with one trial per day, and a mean percent alternation will be calculated for each mouse. […] The brain will be removed and longitudinally bisected as described previously (Craft et al., Neurobiolo Aging 25:12834292, 2004b). […] The hippocampus will be dissected from the left half of the brain and snap-frozen for subsequent biochemical evaluation.
# S100B levels in hippocampal supernatants will be measured by a empium-based ELISA essentially as previously described (Van Eldik and Griffin, Biochem Biophys Acta 1223:398-403, 1994). Synaptophysin levels in hippocampal supernatants will be quantified by ELISA following the procedure described previously (Craft at al, 20041, supra). PSD-95 levels will be determined by Western blots using anti-PSD-95 antibodies (1:100,000 dilution; Upstate Biotechnology) as described (Craft et al., 2004b).
# It was previously shown that Aβ-induced neuroinflammation is an early event associated with the onset and progression of pathophysiology, and can be suppressed by an inhibitor of glial activation. Female C57Bl/6 mice (Harlan) weighing […] (3-4 months old) were housed in a pathogen free facility under an approximate 12 h/12 h dark and light cycle and had access ad libitum to food and water. All animal procedures were approved by the Northwestern Animal Care and Use Committee.
# [6] = tested on: human Aβ infusion mouse model; assay: Human Aβ infusion mouse model, Y maze behavioral assay; format: in vivo; settings: 1.25, 2.5, 5, and 10 mg/kg
# Description: as §1
# [7] = tested on: QT interval in Lead II electrocardiogram, anesthetized guinea pigs; assay: Cardiac QT interval prolongation assay in anesthetized guinea pigs; settings: 0.3 mg/kg iv, positive control
# Experimental: The QT interval studies are performed by evaluating compounds for effects on QT interval in Lead II electrocardiograms measured in anesthetized guinea pigs (Hirohashi et al., 1991, Arzneim.-Forsch./Drug Res 41:9-18), one of the species recommended in the FDA white paper. Vehicle or compound is administered orally at 15 mg/kg (dosing volume of 10 ml/kg) to groups of male guinea pigs (weighing 330-350 g), with 5 animals per group. […] Heart rate, arterial blood pressure, and QT intervals are measured at baseline, and at 15, 30, 45, and 60 min after compound administration. Sotalol administered iv at 0.3 mg/kg serves as the positive control compound. The QT intervals are corrected for changes in heart rate using both Bazetes and Fridericia's formulae. Any increase in QT interval values over baseline values exceeding the upper 95% confidence limit of the mean changes at the corresponding time point in the vehicle-treated control group for two consecutive observation times indicates significant QT interval prolongation in the individually treated animals.
# The QT intervals (QTc) were corrected for changes in heart rate using both Bazett's and Fridericia's formulae.
# The test substance was dissolved in 2% Tween 80 and administered by oral administration. The substance was treated at 15 mg/kg with a dosing volume of 10 ml/kg. Duncan Hartley derived guinea pigs provided by MDS Pharma Services—Taiwan Ltd were used. Sotalol was obtained from Sigma, USA.
# Groups of guinea pigs (weighing 330-350 g) with 5 animals each were employed. The animals were anesthetized with urethane (1500 mg/kg, IV bolus injection in a volume of 5 ml/kg) and breathed spontaneously. Lead II ECG was obtained with subdermal needle electrodes and ECG signal conditioner. Heart rate was measured with a pulse rate tachometer. The carotid artery was cannulated with a catheter that was connected to a pressure transducer and a pressure processor for measurements of arterial blood pressure (BP). […] QTC intervals were obtained by correction for heart rate changes using Bazett's and Fridericia's formulae. Increase in QTc interval in individual treated guinea pigs that lies outside the upper limit of 95% confidence limits (mean±SD) of the changes for the vehicle-treated control at corresponding time points for two consecutive times is considered significant.
# [8] = LPS-stimulated BV-2 cells, 16 hrs
Compound,"inhibition of LPS-stimulated accumulation of the NO metabolite, nitrite [1]",suppression of LPS-induced production of iNOS [2],suppression of LPS-induced production of COX-2 [3],inhibition of LPS-induced increases of IL-1β [4],"selectivity (inhibits IL-1β but not production of NO, iNOS, COX-2) [1]",other results
4-methyl-6-phenyl-3-(4-pyrimidin-2-ylpiperazin-1-yl)pyridazine [MW01-2-151SRM],not inhibited,does not suppress,does not suppress,Concentration dependent inhibition,–,–
"CN1CCN(c2nnc(-c3ccccc3)cc2-c2ccncc2)CC1 [MW01-7-085WH, 3-(4-methylpiperazin-1-yl)-6-phenyl-4-(pyridin-4-yl)pyridazine]",not inhibited,does not suppress,does not suppress,Concentration dependent inhibition,selective,loss of PSD-95 [5]: prevented; loss of synaptophysin [5]: not as effective as MW01-2-151SRM; up-regulation of IL-1β [5]: blocked; up-regulation of S100B [5]: blocked; prevention of Y-maze behavioral deficit [6]: trend toward preventing
"c1ccc(-c2cc(-c3ccncc3)c(NCC3CC3)nn2)cc1 [MW01-7-084WH, N-(cyclopropylmethyl)-6-phenyl-4-(pyridin-4-yl)pyridazin-3-amine]",not inhibited,does not suppress,does not suppress,Concentration dependent inhibition,selective,loss of PSD-95 [5]: prevented; loss of synaptophysin [5]: not as effective as MW01-2-151SRM; up-regulation of IL-1β [5]: blocked; up-regulation of S100B [5]: blocked; prevention of Y-maze behavioral deficit [6]: trend toward preventing
CC(C)Cc1cc(-c2ccccc2)nnc1N1CCN(c2ncccn2)CC1 [Compound 4],–,–,–,–,–,"IC50 [1]: 22 ± 3 µM; IC50 [4, 8]: 6.1 ± 2.5 µM"
"c1ccc(-c2cc(-c3ccccc3)c(N3CCNCC3)nn2)cc1 [MW01-7-133WH, 4,6-diphenyl-3-piperazinylpyridazine]",not inhibited,does not suppress,does not suppress,Concentration dependent inhibition,selective,–
"Cc1cc(-c2ccccc2)c(N2CCN(c3ncccn3)CC2)nn1 [MW01-7-057WH, 6-methyl-4-phenyl-3-(4-pyrimidin-2-ylpiperazin-1-yl)pyridazine]",not inhibited,does not suppress,does not suppress,Concentration dependent inhibition,selective,loss of PSD-95 [5]: did not block; loss of synaptophysin [5]: blocked; up-regulation of IL-1β [5]: did not block; up-regulation of S100B [5]: blocked; loss of PSD-95 ([5]; listed as MW01-2-057WH): no significant effect; prevention of Y-maze behavioral deficit [6]: significantly effective
4-Methyl-6-phenyl-3-(4-pyridin-2-yl)piperazin-1-yl)pyridazine [Compound 8],–,–,–,–,–,IC50 [1]: > 25 µM
"CC(C)NCC(O)c1ccc(NS(C)(=O)=O)cc1 (stereo not shown) [sotalol, reference compound]",–,–,–,–,–,QTc interval prolongation [7]: caused significant prolongation; also recorded: significant increase
4-pyridyl-6-phenyl-3-(4-pyrimidin-2-ylpiperazin-1-yl)pyridazine [MW01-6-189WH],not inhibited,does not suppress,does not suppress,Concentration dependent inhibition,–,–
"Cc1cc(-c2ccccc2)nnc1N1CCN(C)CC1 [Compound 11, 4-Methyl-3-(4-methylpiperazin-1-yl)-6-phenylpyridazine]",–,–,–,–,–,"IC50 ([4]; Mus musculus, BV-2, 16 h): 48.9 ± 23.2 µM"
"Clc1cc(-c2ccccc2)nnc1N1CCN(c2ncccn2)CC1 [MW01-6-127WH, 4-chloro-6-phenyl-3-(4-pyrimidin-2-ylpiperazin-1-yl)pyridazine]",–,–,–,–,–,"IC50 ([1]; Mus musculus): 19 ± 8 µM; IC50 ([4]; Mus musculus, BV-2, 16 h): 9.5 ± 4 µM"
4-Methyl-6-phenyl-3-(4-pyridin-4-yl)piperazin-1-yl)pyridazine [Compound 9],–,–,–,–,–,IC50 [1]: > 25 µM
"c1ccc(-c2cc(N3CCCCC3)c(N3CCN(c4ncccn4)CC3)nn2)cc1 [MW01-7-107WH, 2-(4-(6-phenyl-4-(piperidin-1-yl)pyridazin-3-yl)piperazin-1-yl)pyrimidine]",also inhibited,also inhibited,also inhibited,Concentration dependent inhibition,nonselective,–
"Cc1cc(-c2ccccc2)nnc1N1CCN(C2CCCCC2)CC1 [Compound 10, 3-(4-cyclohexylpiperazin-1-yl)-4-methyl-6-phenylpyridazine]",–,–,–,–,–,"IC50 ([4]; Mus musculus, BV-2, 16 h): 31.4 ± 4.9 µM"
c1ccc(Cc2cc(-c3ccccc3)nnc2N2CCN(c3ncccn3)CC2)cc1 [Compound 2],–,–,–,–,–,"IC50 [1]: > 25 µM; IC50 [4, 8]: 5.3 ± 0.6 µM"
Cc1cc(-c2ccccc2)nnc1N1CCN(c2cnccn2)CC1 [Compound 7],–,–,–,–,–,"IC50 [4, 8]: 46.1 ± 23.3 µM"
